{
  "source": "paper PMC12766724",
  "about": "“Synthesis, Anthelmintic Activity, and Mechanism of Action of 5‑Aryl‑1H‑indoles” (Journal of Agricultural and Food Chemistry, 2025)",
  "key": {"[1]": {"system": "xL3 H. contortus", "assay": "Motility on WMicrotracker ONE", "format": "in vivo", "conditions": "48 h; for reduction of movement rates: 50 µM", "description": "H. contortus L3 were obtained by culturing feces collected from experimentally infected sheep (located in the facilities of the Instituto de Ganadera de Montaa, Leon, Spain) in aerated and humidified closed containers, which were placed in a climatic chamber at 28 °C for 5 days. Larvae were recovered by immersing the feces in tap water for 5 h to stimulate migration. The suspension was then filtered through a 20 μm sieve. Subsequently, larvae were collected using a Baermann apparatus with a 30 μm mesh overnight at 23 °C. Exsheathment of L3 larvae was performed by incubating them in 0.1% (v/v) sodium hypochlorite for 1 h at room temperature on a rotator, followed by three washes with tap water to remove residual bleach.\nThe effect of compounds on motility of H. contortus, D. destructor, and H. schachtii was evaluated using the WMicrotracker ONE platform according to previously published protocols. ,\nWe mostly focused on the three derivatives containing a halogen substitution in the 4-position of the phenyl ring, namely, i-19, i-20, and i-21. An initial experiment was also conducted with a representative compound with an aliphatic chain, namely, i-12, in which we observed only a relatively small effect on the motility of larvae (approximately 30% decrease in motility of nematodes treated with 100 μM of the compound after 48 h in comparison to vehicle-treated worms; Figure S2.7). […] The effect was apparent starting at 3 h and beyond. At 48 h, the latest time point was tested, and the movement rates of nematodes exposed to 50 μM of i-19, i-20, and i-21 were reduced by 76%, 80%, and 82%, respectively."}, "[2]": {"system": "C. elegans N2 wild-type", "assay": "Chitinase assay (reproductive capacity)", "format": "in vivo, Caenorhabditis elegans", "conditions": "Caenorhabditis elegans", "how_it_was_run": "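Wild-type N2 L1 larvae were exposed to compounds for 4 days, then populations were examined microscopically and Chitinase activity, released at hatching, was measured as a read-out of reproduction. Failure from acute or reproductive toxicity or developmental defects is detected.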"}, "[3]": {"system": "age unsynchronized Ditylenchus destructor", "assay": "Motility on WMicrotracker ONE", "format": "in vivo", "how_it_was_run": "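Age-unsynchronized populations of Ditylenchus destructor were maintained following a previously described protocol. Their motility was measured on the WMicrotracker ONE platform using previously published methods. The instrument scores the activity of small animals by counting how often infrared light microbeams passing through the wells of a microtiter plate are interrupted. Activity was recorded before treatment and during exposure to compounds.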"}, "[4]": {"system": "H. schachtii second-stage juveniles (J2)", "assay": "Nematicidal assay with NaOH agitation", "format": "in vivo, Heterodera schachtii", "conditions": "50 µM; 48 h", "text": "To assess the nematicidal effect of compounds on H. schachtii second-stage juveniles (J2), approximately 50 J2 in sterile double-distilled water were transferred into each well of a flat-bottom 96-well plate and exposed to the test compounds or vehicle alone (DMSO 0.2%)."}, "[5]": {"system": "H. schachtii", "assay": "DESI-MS detection of compound in nematodes", "design": "species or system Heterodera schachtii", "description": "(§1) For in situ visualization of selected compounds, desorption electrospray ionization mass spectrometry imaging (DESI-MSI) was performed by using a Synapt G2-Si MS instrument coupled to a 2D-DESI source (Waters). The spray solvent (95% MeOH with 0.1% ammonia) was delivered at 2 μL/min and nebulized with […] ultrapure nitrogen on sample slides. The DESI source was optimized as follows: tip-to-surface distance: 1 mm; tip-to-inlet distance: 5 mm; incidence angle: 55°; collection angle: 10°; capillary voltage: 4 kV; cone voltage: […]; mass range: 100–600, with 16 000–17 000 full width at half-maximum (fwhm) mass resolution. Data were acquired in the negative mode using MassLynx software (v4.1, Waters, Milford, MA). Spectra, with a spatial resolution of 30 μm, were acquired every second. All acquired spectra were then recalibrated with the exact mass of the standard compounds and normalized based on root mean square (RMS) intensities. […] DESI-MS/MS was performed on the same sampling area with a 20 eV collision energy scanning of nematodes, and the acquired MS/MS spectra were summarized for the fragmentation ion assignment, and the correct molecular formulas were first calculated using MassLynx software (v4.1) and then identified by their masses acquired from the standard solution. […]"}, "[6]": {"system": "C. elegans", "assay": "DESI-MS detection of compound in nematodes", "design": "species or system Caenorhabditis elegans", "description": "as §1"}, "[7]": {"system": "C. elegans MCII mutant RP2702", "assay": "Acute motility of young adults on WMicrotracker ONE", "format": "in vivo, Caenorhabditis elegans", "conditions": "50 μM; 24 h", "description": "(§2) The effect of compounds on C. elegans N2 and SDH mutant strains was measured in a similar manner. Briefly, for evaluation of the acute effect of the compounds, age-synchronized young adults of each strain, kept in S complete medium supplemented with E. coli OP50 (3 mg/mL, fresh weight), were transferred onto microtiter plates (96-well, U bottom), and their initial motility was measured for 30 min. […] Afterward, the compounds were washed away, and worms, supplemented with fresh liquid media and food, were distributed onto 96-well plates and allowed to recover. Their activity was measured using WMicrotracker ONE at the indicated time points.\n(§3) To experimentally support this promising initial finding, we tested the effect of i-19 against several C. elegans MCII mutant strains. These nematodes carry point mutations that result in amino acid changes in regions of subunits SDHC and SDHD that contribute to the formation of the ubiquinone-binding pocket, thereby influencing its shape and the ability of inhibitors to interact with the protein. […] The compounds were tested in multiple setups. At first, young adults were exposed to higher doses (100, 50, and 10 μM) of the compounds for up to 48 h, and changes in motility were evaluated using WMicrotracker. For both compounds, we observed a less pronounced decrease in movement rates of MCII mutants compared to wild-type worms, in both a dose- and time-dependent manner (Figure )."}, "[8]": {"system": "C. elegans MCII mutant RP2700", "assay": "Acute motility of young adults on WMicrotracker ONE", "format": "in vivo, Caenorhabditis elegans", "conditions": "50 μM; 24 h", "description": "as §2, §3"}, "[9]": {"conditions": "10 µM group, initial (prior to the treatment)"}, "[10]": {"conditions": "50 µM group, initial (prior to the treatment)"}, "[11]": {"conditions": "100 µM group, initial (prior to the treatment)"}},
  "data": [
    {"compound": "Fc1ccc(-c2ccc3[nH]ccc3c2)cc1", "note": "[i-20]", "values": [
      {"measurement": "reduction of movement rates", "setting": "[1]", "result": 80, "unit": "%"},
      {"measurement": "IC50", "setting": "[2]", "result": "9.05 ± 0.62", "unit": "µM"},
      {"measurement": "average activity counts", "setting": "[3]; [9]", "result": 215},
      {"measurement": "average activity counts", "setting": "[3]; 10 µM, 48 h", "result": 200},
      {"measurement": "average activity counts", "setting": "[3]; 10 µM, 72 h", "result": 187},
      {"measurement": "average activity counts", "setting": "[3]; [10]", "result": 223},
      {"measurement": "average activity counts", "setting": "[3]; 50 µM, 48 h", "result": 84},
      {"measurement": "average activity counts", "setting": "[3]; 50 µM, 72 h", "result": 64},
      {"measurement": "average activity counts", "setting": "[3]; [11]", "result": 226},
      {"measurement": "average activity counts", "setting": "[3]; 100 µM, 48 h", "result": 2},
      {"measurement": "average activity counts", "setting": "[3]; 100 µM, 72 h", "result": 2},
      {"measurement": "decrease of mean activity counts", "setting": "[3]; 100 µM, 72 h", "result": 99, "unit": "%"},
      {"measurement": "nematicidal effect after NaOH addition", "setting": "[4]", "result": "immobilize worms rather than directly kill them"}
    ]},
    {"compound": "CCCOc1cccc(-c2ccc3[nH]ccc3c2)c1", "note": "[i-12]", "values": [
      {"measurement": "decrease in motility in comparison to vehicle-treated worms", "setting": "[1]; 100 µM", "result": "approximately 30%"},
      {"measurement": "IC50", "setting": "[2]", "result": "9.6 ± 0.9", "unit": "µM"},
      {"measurement": "average activity counts", "setting": "[3]; [9]", "result": 220},
      {"measurement": "average activity counts", "setting": "[3]; 10 µM, 48 h", "result": 197},
      {"measurement": "average activity counts", "setting": "[3]; 10 µM, 72 h", "result": 218},
      {"measurement": "average activity counts", "setting": "[3]; [10]", "result": 201},
      {"measurement": "average activity counts", "setting": "[3]; 50 µM, 48 h", "result": 186},
      {"measurement": "average activity counts", "setting": "[3]; 50 µM, 72 h", "result": 202},
      {"measurement": "average activity counts", "setting": "[3]; [11]", "result": 235},
      {"measurement": "average activity counts", "setting": "[3]; 100 µM, 48 h", "result": 207},
      {"measurement": "average activity counts", "setting": "[3]; 100 µM, 72 h", "result": 202}
    ]},
    {"compound": "FC(F)(F)Oc1ccc(-c2ccc3[nH]ccc3c2)cc1", "note": "[i-21]", "values": [
      {"measurement": "reduction of movement rates", "setting": "[1]", "result": 82, "unit": "%"},
      {"measurement": "IC50", "setting": "[2]", "result": "8.58 ± 0.99", "unit": "µM"},
      {"measurement": "average activity counts", "setting": "[3]; [9]", "result": 227},
      {"measurement": "average activity counts", "setting": "[3]; 10 µM, 48 h", "result": 220},
      {"measurement": "average activity counts", "setting": "[3]; 10 µM, 72 h", "result": 183},
      {"measurement": "average activity counts", "setting": "[3]; [10]", "result": 223},
      {"measurement": "average activity counts", "setting": "[3]; 50 µM, 48 h", "result": 172},
      {"measurement": "average activity counts", "setting": "[3]; 50 µM, 72 h", "result": 139},
      {"measurement": "average activity counts", "setting": "[3]; [11]", "result": 221},
      {"measurement": "average activity counts", "setting": "[3]; 100 µM, 48 h", "result": 158},
      {"measurement": "average activity counts", "setting": "[3]; 100 µM, 72 h", "result": 94},
      {"measurement": "decrease of mean activity counts", "setting": "[3]; 100 µM, 72 h", "result": 57, "unit": "%"}
    ]},
    {"compound": "CCCOc1ccc(-c2ccc3[nH]ccc3c2)cc1", "note": "[i-13]", "values": [
      {"measurement": "IC50", "setting": "[2]", "result": "7.09 ± 0.72", "unit": "µM"},
      {"measurement": "average activity counts", "setting": "[3]; [9]", "result": 204},
      {"measurement": "average activity counts", "setting": "[3]; 10 µM, 48 h", "result": 200},
      {"measurement": "average activity counts", "setting": "[3]; 10 µM, 72 h", "result": 207},
      {"measurement": "average activity counts", "setting": "[3]; [10]", "result": 221},
      {"measurement": "average activity counts", "setting": "[3]; 50 µM, 48 h", "result": 211},
      {"measurement": "average activity counts", "setting": "[3]; 50 µM, 72 h", "result": 219},
      {"measurement": "average activity counts", "setting": "[3]; [11]", "result": 239},
      {"measurement": "average activity counts", "setting": "[3]; 100 µM, 48 h", "result": 211},
      {"measurement": "average activity counts", "setting": "[3]; 100 µM, 72 h", "result": 228},
      {"measurement": "DESI-MS signal of the compound in nematodes", "setting": "[5]", "result": "able to detect signals"},
      {"measurement": "DESI-MS signal of the compound in nematodes", "setting": "[6]", "result": "able to detect signals"}
    ]},
    {"compound": "Clc1ccc(-c2ccc3[nH]ccc3c2)cc1", "note": "[i-19]", "values": [
      {"measurement": "reduction of movement rates", "setting": "[1]", "result": 76, "unit": "%"},
      {"measurement": "IC50", "setting": "[2]", "result": "6.67 ± 0.6", "unit": "µM"},
      {"measurement": "decrease of mean activity counts", "setting": "[7]", "result": 70, "unit": "%"},
      {"measurement": "decrease of mean activity counts", "setting": "[8]", "result": 32, "unit": "%"},
      {"measurement": "average activity counts", "setting": "[3]; [9]", "result": 226},
      {"measurement": "average activity counts", "setting": "[3]; 10 µM, 48 h", "result": 227},
      {"measurement": "average activity counts", "setting": "[3]; 10 µM, 72 h", "result": 232},
      {"measurement": "average activity counts", "setting": "[3]; [10]", "result": 239},
      {"measurement": "average activity counts", "setting": "[3]; 50 µM, 48 h", "result": 85},
      {"measurement": "average activity counts", "setting": "[3]; 50 µM, 72 h", "result": 67},
      {"measurement": "average activity counts", "setting": "[3]; [11]", "result": 233},
      {"measurement": "average activity counts", "setting": "[3]; 100 µM, 48 h", "result": 113},
      {"measurement": "average activity counts", "setting": "[3]; 100 µM, 72 h", "result": 88},
      {"measurement": "decrease of mean activity counts", "setting": "[3]; 100 µM, 72 h", "result": 62, "unit": "%"},
      {"measurement": "DESI-MS signal of the compound in nematodes", "setting": "[5]", "result": "able to detect signals"},
      {"measurement": "nematicidal effect after NaOH addition", "setting": "[4]", "result": "immobilize worms rather than directly kill them"},
      {"measurement": "DESI-MS signal of the compound in nematodes", "setting": "[6]", "result": "able to detect signals"}
    ]}
  ]
}
